Article PMC12670405, “Second-Generation AURKA-Targeting PROTACs: Structural Optimization toward in Vivo Degradation in Neuroblastoma” (Journal of Medicinal Chemistry, 2025)

Columns and labels:
Test in all cases: KINOMEscan scanMAX
Assay type in all cases: binding
Settings in all cases: read-out: Percent Control
STK33 = biological target: T1, STK33 (Homo sapiens, UniProt Q9BYT3)
T1 construct: purchased Eurofins Discovery (DiscoverX KINOMEscan scanMAX)
Description: (§1) The kinome-wide binding assay was performed by Eurofins Discovery using the scanMAX screening platform. More information can be found on the Eurofins Discovery Web site.

MKNK1 = biological target: T2, MKNK1 (Homo sapiens, UniProt Q9BUB5)
T2 construct: purchased Eurofins Discovery (DiscoverX KINOMEscan scanMAX)
Description: as §1

KIT(A829P) = biological target: T3, KIT(A829P) (Homo sapiens, UniProt P10721, A829P)
T3 construct: purchased Eurofins Discovery (DiscoverX KINOMEscan scanMAX)
Description: as §1

[1] = biological target: T4, ABL1(M351T)-phosphorylated (Homo sapiens, UniProt P00519, M351T)
T4 construct: purchased Eurofins Discovery (DiscoverX KINOMEscan scanMAX)
Description: as §1

HPK1 = biological target: T5, HPK1 (Homo sapiens, UniProt Q92918)
T5 construct: purchased Eurofins Discovery (DiscoverX KINOMEscan scanMAX)
Description: as §1

PLK1 = biological target: T6, PLK1 (Homo sapiens, UniProt P53350)
T6 construct: purchased Eurofins Discovery (DiscoverX KINOMEscan scanMAX)
Description: as §1

FLT3-autoinhibited = biological target: T7, FLT3-autoinhibited (Homo sapiens, UniProt P36888)
T7 construct: purchased Eurofins Discovery (DiscoverX KINOMEscan scanMAX)
Description: as §1

FGR = biological target: T8, FGR (Homo sapiens, UniProt P09769)
T8 construct: purchased Eurofins Discovery (DiscoverX KINOMEscan scanMAX)
Description: as §1

PRKD1 = biological target: T9, PRKD1 (Homo sapiens, UniProt Q15139)
T9 construct: purchased Eurofins Discovery (DiscoverX KINOMEscan scanMAX)
Description: as §1

IRAK3 = biological target: T10, IRAK3 (Homo sapiens, UniProt Q9Y616)
T10 construct: purchased Eurofins Discovery (DiscoverX KINOMEscan scanMAX)
Description: as §1

PKAC-beta = biological target: T11, PKAC-beta (Homo sapiens, UniProt P22694)
T11 construct: purchased Eurofins Discovery (DiscoverX KINOMEscan scanMAX)
Description: as §1

EPHA1 = biological target: T12, EPHA1 (Homo sapiens, UniProt P21709)
T12 construct: purchased Eurofins Discovery (DiscoverX KINOMEscan scanMAX)
T12 sequence (P21709 26-976): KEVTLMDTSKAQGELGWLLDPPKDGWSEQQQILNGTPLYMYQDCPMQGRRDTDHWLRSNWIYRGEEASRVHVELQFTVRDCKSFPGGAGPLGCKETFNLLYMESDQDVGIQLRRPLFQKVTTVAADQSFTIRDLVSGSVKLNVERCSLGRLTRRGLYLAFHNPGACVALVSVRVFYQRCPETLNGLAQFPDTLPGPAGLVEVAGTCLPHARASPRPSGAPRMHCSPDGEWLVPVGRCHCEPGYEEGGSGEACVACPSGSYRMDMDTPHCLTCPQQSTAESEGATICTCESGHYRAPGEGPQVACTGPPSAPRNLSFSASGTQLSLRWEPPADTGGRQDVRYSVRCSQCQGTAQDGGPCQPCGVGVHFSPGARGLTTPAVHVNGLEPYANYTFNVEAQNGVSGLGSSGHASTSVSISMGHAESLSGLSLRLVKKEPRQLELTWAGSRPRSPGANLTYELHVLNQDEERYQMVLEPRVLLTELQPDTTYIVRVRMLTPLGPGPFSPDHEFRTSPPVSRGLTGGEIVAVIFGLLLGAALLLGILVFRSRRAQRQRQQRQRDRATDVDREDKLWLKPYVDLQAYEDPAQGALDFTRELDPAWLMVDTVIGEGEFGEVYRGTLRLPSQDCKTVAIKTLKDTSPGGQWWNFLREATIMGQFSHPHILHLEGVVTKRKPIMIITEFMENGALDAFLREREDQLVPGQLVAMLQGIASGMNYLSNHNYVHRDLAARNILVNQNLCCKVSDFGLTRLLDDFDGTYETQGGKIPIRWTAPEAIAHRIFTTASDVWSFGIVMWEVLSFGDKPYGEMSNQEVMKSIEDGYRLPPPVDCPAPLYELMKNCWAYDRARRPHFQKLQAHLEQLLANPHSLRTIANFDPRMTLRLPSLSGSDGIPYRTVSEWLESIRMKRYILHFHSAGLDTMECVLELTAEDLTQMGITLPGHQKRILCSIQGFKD
Description: as §1

TNIK = biological target: T13, TNIK (Homo sapiens, UniProt Q9UKE5)
T13 construct: purchased Eurofins Discovery (DiscoverX KINOMEscan scanMAX)
T13 sequence (Q9UKE5 whole entry): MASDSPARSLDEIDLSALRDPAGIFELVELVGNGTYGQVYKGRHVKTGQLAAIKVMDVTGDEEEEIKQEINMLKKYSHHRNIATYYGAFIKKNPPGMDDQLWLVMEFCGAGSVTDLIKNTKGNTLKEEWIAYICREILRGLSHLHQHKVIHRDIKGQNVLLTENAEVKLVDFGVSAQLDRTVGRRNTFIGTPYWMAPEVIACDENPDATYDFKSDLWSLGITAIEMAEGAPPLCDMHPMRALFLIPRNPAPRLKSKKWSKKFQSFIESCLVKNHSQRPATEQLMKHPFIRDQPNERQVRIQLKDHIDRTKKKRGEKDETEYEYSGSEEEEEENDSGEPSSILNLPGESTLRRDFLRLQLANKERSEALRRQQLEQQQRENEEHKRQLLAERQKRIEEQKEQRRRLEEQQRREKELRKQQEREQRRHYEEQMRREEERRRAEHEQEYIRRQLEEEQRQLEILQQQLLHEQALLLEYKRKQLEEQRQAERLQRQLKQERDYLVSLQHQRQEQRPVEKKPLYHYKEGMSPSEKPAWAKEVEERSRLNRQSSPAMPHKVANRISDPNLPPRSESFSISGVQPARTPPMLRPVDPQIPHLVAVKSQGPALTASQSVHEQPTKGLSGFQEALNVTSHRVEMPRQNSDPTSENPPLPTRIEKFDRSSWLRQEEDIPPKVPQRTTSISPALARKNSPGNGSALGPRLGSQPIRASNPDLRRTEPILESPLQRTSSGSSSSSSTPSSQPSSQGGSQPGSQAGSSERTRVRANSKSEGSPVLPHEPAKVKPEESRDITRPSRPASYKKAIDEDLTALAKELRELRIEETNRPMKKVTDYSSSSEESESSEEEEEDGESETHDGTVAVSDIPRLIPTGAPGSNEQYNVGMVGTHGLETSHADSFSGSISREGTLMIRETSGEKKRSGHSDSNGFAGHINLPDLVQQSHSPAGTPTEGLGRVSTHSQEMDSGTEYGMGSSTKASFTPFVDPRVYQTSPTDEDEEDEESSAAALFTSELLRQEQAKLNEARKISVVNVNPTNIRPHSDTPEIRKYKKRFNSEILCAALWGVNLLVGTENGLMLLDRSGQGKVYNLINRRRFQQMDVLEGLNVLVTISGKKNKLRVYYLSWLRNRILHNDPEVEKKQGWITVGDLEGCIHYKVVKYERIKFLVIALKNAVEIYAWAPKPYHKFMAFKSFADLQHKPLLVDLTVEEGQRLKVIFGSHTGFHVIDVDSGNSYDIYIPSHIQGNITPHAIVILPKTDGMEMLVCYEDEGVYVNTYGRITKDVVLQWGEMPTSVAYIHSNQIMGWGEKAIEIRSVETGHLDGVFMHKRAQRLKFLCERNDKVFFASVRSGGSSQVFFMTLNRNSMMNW
Description: as §1

[2] = biological target: T14, RPS6KA4(Kin.Dom.2-C-terminal) (Homo sapiens, UniProt O75676)
T14 construct: RPS6KA4(Kin.Dom.2-C-terminal); purchased Eurofins Discovery (DiscoverX KINOMEscan scanMAX)
Description: as §1

CAMK4 = biological target: T15, CAMK4 (Homo sapiens, UniProt Q16566)
T15 construct: purchased Eurofins Discovery (DiscoverX KINOMEscan scanMAX)
Description: as §1

PKN2 = biological target: T16, PKN2 (Homo sapiens, UniProt Q16513)
T16 construct: purchased Eurofins Discovery (DiscoverX KINOMEscan scanMAX)
T16 sequence (Q16513 whole entry): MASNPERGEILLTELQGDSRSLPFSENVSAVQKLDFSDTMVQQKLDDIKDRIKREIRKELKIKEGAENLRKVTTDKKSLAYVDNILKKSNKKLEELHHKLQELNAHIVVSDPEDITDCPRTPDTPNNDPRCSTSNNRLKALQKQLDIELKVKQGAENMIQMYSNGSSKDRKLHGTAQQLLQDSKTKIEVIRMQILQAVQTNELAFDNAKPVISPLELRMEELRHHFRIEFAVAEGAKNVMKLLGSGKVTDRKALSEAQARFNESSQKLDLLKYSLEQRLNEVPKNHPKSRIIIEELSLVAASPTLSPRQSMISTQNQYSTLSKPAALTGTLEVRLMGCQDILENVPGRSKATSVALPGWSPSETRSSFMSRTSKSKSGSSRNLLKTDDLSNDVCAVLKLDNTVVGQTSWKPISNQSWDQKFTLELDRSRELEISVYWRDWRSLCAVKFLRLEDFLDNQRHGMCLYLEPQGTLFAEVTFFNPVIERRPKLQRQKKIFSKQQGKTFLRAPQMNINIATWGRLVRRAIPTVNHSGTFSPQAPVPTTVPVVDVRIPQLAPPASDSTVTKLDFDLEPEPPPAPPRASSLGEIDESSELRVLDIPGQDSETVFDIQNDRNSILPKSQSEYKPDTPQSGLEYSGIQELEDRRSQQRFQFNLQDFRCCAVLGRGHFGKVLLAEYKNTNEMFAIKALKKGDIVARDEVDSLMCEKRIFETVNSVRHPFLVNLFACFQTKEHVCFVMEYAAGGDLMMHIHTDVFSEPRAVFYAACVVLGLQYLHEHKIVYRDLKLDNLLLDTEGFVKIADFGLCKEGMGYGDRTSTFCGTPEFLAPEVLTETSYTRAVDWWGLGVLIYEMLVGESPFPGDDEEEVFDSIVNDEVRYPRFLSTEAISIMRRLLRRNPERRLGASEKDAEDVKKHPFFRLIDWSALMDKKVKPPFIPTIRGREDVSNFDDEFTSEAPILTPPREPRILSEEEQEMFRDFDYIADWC
Description: as §1

PHKG2 = biological target: T17, PHKG2 (Homo sapiens, UniProt P15735)
T17 construct: purchased Eurofins Discovery (DiscoverX KINOMEscan scanMAX)
Description: as §1

LKB1 = biological target: T18, LKB1 (Homo sapiens, UniProt Q15831)
T18 construct: purchased Eurofins Discovery (DiscoverX KINOMEscan scanMAX)
Description: as §1

[3] = biological target: T19, ABL1(Q252H)-phosphorylated (Homo sapiens, UniProt P00519, Q252H)
T19 construct: purchased Eurofins Discovery (DiscoverX KINOMEscan scanMAX)
Description: as §1

RIOK1 = biological target: T20, RIOK1 (Homo sapiens, UniProt Q9BRS2)
T20 construct: purchased Eurofins Discovery (DiscoverX KINOMEscan scanMAX)
Description: as §1

HIPK1 = biological target: T21, HIPK1 (Homo sapiens, UniProt Q86Z02)
T21 construct: purchased Eurofins Discovery (DiscoverX KINOMEscan scanMAX)
T21 sequence (Q86Z02 whole entry): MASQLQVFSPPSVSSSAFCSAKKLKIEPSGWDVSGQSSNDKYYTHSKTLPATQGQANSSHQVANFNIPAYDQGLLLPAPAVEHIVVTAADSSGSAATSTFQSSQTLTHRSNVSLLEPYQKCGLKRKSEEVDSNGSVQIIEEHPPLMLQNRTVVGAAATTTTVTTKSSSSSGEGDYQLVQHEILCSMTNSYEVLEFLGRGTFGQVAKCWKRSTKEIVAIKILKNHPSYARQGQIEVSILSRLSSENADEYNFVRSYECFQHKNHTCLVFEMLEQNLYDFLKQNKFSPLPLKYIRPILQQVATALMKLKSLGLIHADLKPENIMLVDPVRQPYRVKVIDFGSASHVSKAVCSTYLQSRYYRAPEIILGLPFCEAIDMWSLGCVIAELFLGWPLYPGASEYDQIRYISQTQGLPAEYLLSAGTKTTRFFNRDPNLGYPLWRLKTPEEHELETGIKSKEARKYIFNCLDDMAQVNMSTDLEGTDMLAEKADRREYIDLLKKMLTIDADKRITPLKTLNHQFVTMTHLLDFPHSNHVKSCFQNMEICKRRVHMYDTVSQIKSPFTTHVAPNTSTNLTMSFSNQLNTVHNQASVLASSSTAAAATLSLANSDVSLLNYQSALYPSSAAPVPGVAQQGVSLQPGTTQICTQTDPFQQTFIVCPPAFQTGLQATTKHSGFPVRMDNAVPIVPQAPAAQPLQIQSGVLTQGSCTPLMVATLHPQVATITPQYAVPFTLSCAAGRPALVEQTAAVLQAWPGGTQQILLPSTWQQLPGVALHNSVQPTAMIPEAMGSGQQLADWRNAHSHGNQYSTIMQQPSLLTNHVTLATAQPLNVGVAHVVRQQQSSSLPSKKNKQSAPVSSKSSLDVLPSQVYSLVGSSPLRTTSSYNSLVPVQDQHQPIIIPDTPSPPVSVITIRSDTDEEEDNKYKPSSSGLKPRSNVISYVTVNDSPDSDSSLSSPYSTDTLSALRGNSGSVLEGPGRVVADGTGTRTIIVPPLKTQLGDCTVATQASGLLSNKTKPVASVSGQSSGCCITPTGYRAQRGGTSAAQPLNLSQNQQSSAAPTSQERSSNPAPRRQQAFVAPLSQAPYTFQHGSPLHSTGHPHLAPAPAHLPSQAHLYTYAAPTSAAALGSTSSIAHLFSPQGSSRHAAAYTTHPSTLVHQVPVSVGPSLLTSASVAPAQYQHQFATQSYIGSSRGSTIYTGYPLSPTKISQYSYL
Description: as §1

TRPM6 = biological target: T22, TRPM6 (Homo sapiens, UniProt Q9BX84)
T22 construct: purchased Eurofins Discovery (DiscoverX KINOMEscan scanMAX)
Description: as §1

p38-beta = biological target: T23, p38-beta (Homo sapiens, UniProt Q15759)
T23 construct: purchased Eurofins Discovery (DiscoverX KINOMEscan scanMAX)
Description: as §1

[4] = biological target: T24, RSK4(Kin.Dom.1-N-terminal) (Homo sapiens, UniProt Q9UK32)
T24 construct: RSK4(Kin.Dom.1-N-terminal); purchased Eurofins Discovery (DiscoverX KINOMEscan scanMAX)
Description: as §1

FYN = biological target: T25, FYN (Homo sapiens, UniProt P06241)
T25 construct: purchased Eurofins Discovery (DiscoverX KINOMEscan scanMAX)
Description: as §1

CDK9 = biological target: T26, CDK9 (Homo sapiens, UniProt P50750)
T26 construct: purchased Eurofins Discovery (DiscoverX KINOMEscan scanMAX)
Description: as §1

PRKCI = biological target: T27, PRKCI (Homo sapiens, UniProt P41743)
T27 construct: purchased Eurofins Discovery (DiscoverX KINOMEscan scanMAX)
Description: as §1

PIK3CA(H1047L) = biological target: T28, PIK3CA(H1047L) (Homo sapiens, UniProt P42336, H1047L)
T28 construct: purchased Eurofins Discovery (DiscoverX KINOMEscan scanMAX)
Description: as §1

ITK = biological target: T29, ITK (Homo sapiens, UniProt Q08881)
T29 construct: purchased Eurofins Discovery (DiscoverX KINOMEscan scanMAX)
Description: as §1

SYK = biological target: T30, SYK (Homo sapiens, UniProt P43405)
T30 construct: purchased Eurofins Discovery (DiscoverX KINOMEscan scanMAX)
Description: as §1

YES = biological target: T31, YES (Homo sapiens, UniProt P07947)
T31 construct: purchased Eurofins Discovery (DiscoverX KINOMEscan scanMAX)
Description: as §1

SRC = biological target: T32, SRC (Homo sapiens, UniProt P12931)
T32 construct: purchased Eurofins Discovery (DiscoverX KINOMEscan scanMAX)
T32 sequence (P12931 whole entry): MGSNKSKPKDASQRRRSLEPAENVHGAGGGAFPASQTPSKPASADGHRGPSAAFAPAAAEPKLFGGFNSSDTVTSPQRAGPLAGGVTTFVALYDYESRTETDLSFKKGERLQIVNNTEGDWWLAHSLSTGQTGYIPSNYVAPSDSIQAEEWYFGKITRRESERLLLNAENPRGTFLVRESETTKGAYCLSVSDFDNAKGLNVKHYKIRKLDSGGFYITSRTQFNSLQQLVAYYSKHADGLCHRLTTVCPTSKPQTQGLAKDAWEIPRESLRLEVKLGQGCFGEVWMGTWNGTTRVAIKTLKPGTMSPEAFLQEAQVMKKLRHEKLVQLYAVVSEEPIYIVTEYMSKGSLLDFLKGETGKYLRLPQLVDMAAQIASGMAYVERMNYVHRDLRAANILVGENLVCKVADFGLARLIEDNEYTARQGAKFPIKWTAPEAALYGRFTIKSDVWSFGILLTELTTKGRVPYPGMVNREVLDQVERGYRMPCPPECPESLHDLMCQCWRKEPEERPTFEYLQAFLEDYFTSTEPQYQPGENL
Description: as §1

PIK3CA(E542K) = biological target: T33, PIK3CA(E542K) (Homo sapiens, UniProt P42336, E542K)
T33 construct: purchased Eurofins Discovery (DiscoverX KINOMEscan scanMAX)
Description: as §1

SMILES: Cc1cc(Nc2ccc(F)c(CC3(C(=O)N4CCC(F)(CN5CCN(c6ccc(N7CCC(=O)NC7=O)cn6)CC5)CC4)CCN(Cc4cccc(Cl)c4F)CC3)n2)n[nH]1 [SK5527]
- remaining binding at 0.1 µM (STK33; 100 nM): 100%
- remaining binding at 1 µM (STK33; 1000 nM): 97%
- remaining binding at 0.1 µM (MKNK1; 100 nM): 84%
- remaining binding at 1 µM (MKNK1; 1000 nM): 92%
- remaining binding at 0.1 µM (KIT(A829P); 100 nM): 100%
- remaining binding at 1 µM (KIT(A829P); 1000 nM): 95%
- remaining binding at 0.1 µM ([1]; 100 nM): 70%
- remaining binding at 1 µM ([1]; 1000 nM): 34%
- remaining binding at 0.1 µM (HPK1; 100 nM): 100%
- remaining binding at 1 µM (HPK1; 1000 nM): 100%
- remaining binding at 0.1 µM (PLK1; 100 nM): 58%
- remaining binding at 1 µM (PLK1; 1000 nM): 82%
- remaining binding at 0.1 µM (FLT3-autoinhibited; 100 nM): 96%
- remaining binding at 1 µM (FLT3-autoinhibited; 1000 nM): 68%
- remaining binding at 0.1 µM (FGR; 100 nM): 89%
- remaining binding at 1 µM (FGR; 1000 nM): 61%
- remaining binding at 0.1 µM (PRKD1; 100 nM): 100%
- remaining binding at 1 µM (PRKD1; 1000 nM): 100%
- remaining binding at 0.1 µM (IRAK3; 100 nM): 100%
- remaining binding at 1 µM (IRAK3; 1000 nM): 100%
- remaining binding at 0.1 µM (PKAC-beta; 100 nM): 90%
- remaining binding at 1 µM (PKAC-beta; 1000 nM): 100%
- remaining binding at 0.1 µM (EPHA1; 100 nM): 67%
- remaining binding at 1 µM (EPHA1; 1000 nM): 23%
- remaining binding at 0.1 µM (TNIK; 100 nM): 96%
- remaining binding at 1 µM (TNIK; 1000 nM): 90%
- remaining binding at 0.1 µM ([2]; 100 nM): 85%
- remaining binding at 1 µM ([2]; 1000 nM): 77%
- remaining binding at 0.1 µM (CAMK4; 100 nM): 100%
- remaining binding at 1 µM (CAMK4; 1000 nM): 100%
- remaining binding at 0.1 µM (PKN2; 100 nM): 81%
- remaining binding at 1 µM (PKN2; 1000 nM): 81%
- remaining binding at 0.1 µM (PHKG2; 100 nM): 95%
- remaining binding at 1 µM (PHKG2; 1000 nM): 97%
- remaining binding at 0.1 µM (LKB1; 100 nM): 82%
- remaining binding at 1 µM (LKB1; 1000 nM): 83%
- remaining binding at 0.1 µM ([3]; 100 nM): 68%
- remaining binding at 1 µM ([3]; 1000 nM): 44%
- remaining binding at 0.1 µM (RIOK1; 100 nM): 100%
- remaining binding at 1 µM (RIOK1; 1000 nM): 100%
- remaining binding at 0.1 µM (HIPK1; 100 nM): 81%
- remaining binding at 1 µM (HIPK1; 1000 nM): 92%
- remaining binding at 0.1 µM (TRPM6; 100 nM): 100%
- remaining binding at 1 µM (TRPM6; 1000 nM): 100%
- remaining binding at 0.1 µM (p38-beta; 100 nM): 100%
- remaining binding at 1 µM (p38-beta; 1000 nM): 99%
- remaining binding at 0.1 µM ([4]; 100 nM): 93%
- remaining binding at 1 µM ([4]; 1000 nM): 79%
- remaining binding at 0.1 µM (FYN; 100 nM): 94%
- remaining binding at 1 µM (FYN; 1000 nM): 71%
- remaining binding at 0.1 µM (CDK9; 100 nM): 90%
- remaining binding at 1 µM (CDK9; 1000 nM): 97%
- remaining binding at 0.1 µM (PRKCI; 100 nM): 92%
- remaining binding at 1 µM (PRKCI; 1000 nM): 76%
- remaining binding at 0.1 µM (PIK3CA(H1047L); 100 nM): 63%
- remaining binding at 1 µM (PIK3CA(H1047L); 1000 nM): 100%
- remaining binding at 0.1 µM (ITK; 100 nM): 100%
- remaining binding at 1 µM (ITK; 1000 nM): 81%
- remaining binding at 0.1 µM (SYK; 100 nM): 83%
- remaining binding at 1 µM (SYK; 1000 nM): 100%
- remaining binding at 0.1 µM (YES; 100 nM): 73%
- remaining binding at 1 µM (YES; 1000 nM): 70%
- remaining binding at 0.1 µM (SRC; 100 nM): 66%
- remaining binding at 1 µM (SRC; 1000 nM): 33%
- remaining binding at 0.1 µM (PIK3CA(E542K); 100 nM): 81%
- remaining binding at 1 µM (PIK3CA(E542K); 1000 nM): 68%
